# Test results from patent US20110053916A1 (Vertex Pharmaceuticals Incorporated, priority 2009, published 2011).
# pKi: −log10 of the molar value.
# Biological target: T1, PknB (Mycobacterium tuberculosis, UniProt P9WI81)
# T1 construct: made in house
# Assay: biochemical
# Set-up: species or system M. tuberculosis
# Settings: 3 nM PknB, 6 uM GarA, 3 μM ATP, 30 min; competitive tight-binding fit; several symbols in a cell = repeat determinations
# T1 sequence (P9WI81 whole entry): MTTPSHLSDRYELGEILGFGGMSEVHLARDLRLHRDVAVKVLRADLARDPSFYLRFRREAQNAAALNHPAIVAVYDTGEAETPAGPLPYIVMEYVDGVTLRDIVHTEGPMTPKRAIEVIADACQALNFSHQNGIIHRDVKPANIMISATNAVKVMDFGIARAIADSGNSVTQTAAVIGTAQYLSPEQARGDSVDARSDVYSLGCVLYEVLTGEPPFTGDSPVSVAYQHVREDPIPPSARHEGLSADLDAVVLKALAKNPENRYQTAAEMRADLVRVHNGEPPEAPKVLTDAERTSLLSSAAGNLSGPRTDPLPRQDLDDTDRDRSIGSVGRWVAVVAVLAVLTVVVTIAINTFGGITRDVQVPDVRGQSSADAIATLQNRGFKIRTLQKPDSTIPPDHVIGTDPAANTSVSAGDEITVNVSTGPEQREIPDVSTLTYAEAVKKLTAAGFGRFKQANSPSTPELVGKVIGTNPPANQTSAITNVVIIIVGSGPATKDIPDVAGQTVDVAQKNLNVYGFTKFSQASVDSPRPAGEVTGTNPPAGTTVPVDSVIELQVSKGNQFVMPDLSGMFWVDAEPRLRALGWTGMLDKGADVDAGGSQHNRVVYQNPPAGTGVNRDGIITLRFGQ
row,Compound,Ki Values
1,"C#Cc1cnc(N2CC[C@@H](NC(C)=O)C2)nc1Nc1cc(C2CC2)n[nH]1 [Compound 193, N-[1-[4-[(5-cyclopropyl-2H-pyrazol-3-yl)amino]-5-ethynyl-pyrimidin-2-yl]pyrrolidin-3-yl]acetamide]","B, C"
2,"CC(=O)NS(=O)(=O)c1ccc(-c2ncc(Cl)c(Nc3cc(C4CC4)[nH]n3)n2)s1 [Compound 194, N-[[5-[5-chloro-4-[(5-cyclopropyl-1H-pyrazol-3-yl)amino]-pyrimidin-2-yl]-2-thienyl]sulfonyl]acetamide]","A, B**"
3,"C#Cc1cnc(-c2ccc(S(=O)(=O)NC(=O)C(C)(C)C)s2)nc1Nc1cc(C2CC2)[nH]n1 [Compound 201, N-[[5-[4-[(5-cyclopropyl-1H-pyrazol-3-yl)amino]-5-ethynyl-pyrimidin-2-yl]-2-thienyl]sulfonyl]-2,2-dimethyl-propanamide]","B*, B*, B"
4,"C#Cc1cnc(-c2ccc(C(=O)NCCNC(C)=O)s2)nc1Nc1cc(C2CC2)n[nH]1 [Compound 206, N-(2-acetamidoethyl)-5-(4-(5-cyclopropyl-1H-pyrazol-3-ylamino)-5-ethynylpyrimidin-2-yl)thiophene-2-carboxamide]","B**, B**, B*"
5,"CC(O)c1cnc(-c2ccc(S(=O)(=O)NC(C)(C)C)s2)nc1Nc1cc(C2CC2)[nH]n1 (stereo not drawn) [Compound 208, 5-[4-[(5-cyclopropyl-1H-pyrazol-3-yl)amino]-5-(1-hydroxyethyl)pyrimidin-2-yl]-N-tert-butyl-thiophene-2-sulfonamide]","B**, B**, B*, B"
6,"NS(=O)(=O)c1ccc(-c2ncc(C#CCO)c(Nc3cc(C4CC4)[nH]n3)n2)s1 [Compound 217, 5-(4-(5-Cyclopropyl-1H-pyrazol-3-ylamino)-5-(3-hydroxyprop-1-ynyl)pyrimidin-2-yl)thiophene-2-sulfonamide]","A**, A*"
7,"NS(=O)(=O)c1ccc(-c2ncc(CCO)c(Nc3cc(C4CC4)[nH]n3)n2)s1 [Compound 239, 5-(4-(5-cyclopropyl-1H-pyrazol-3-ylamino)-5-(2-hydroxyethyl)pyrimidin-2-yl)thiophene-2-sulfonamide]","A*, B**"

# Same assay, conditions: 3 nM PknB, 6 uM GarA, 3 μM ATP, 30 min; competitive tight-binding fit; several symbols in a cell = repeat determinations; read-out: Ki Values
row,Compound,pKi
1,"C#Cc1cnc(N2CCN(C(C)=O)CC2)nc1Nc1cc(C2CC2)n[nH]1 [Compound 185, 1-[4-[4-[(5-cyclopropyl-2H-pyrazol-3-yl)amino]-5-ethynyl-pyrimidin-2-yl]piperazin-1-yl]ethanone]",6.00 to 6.30
2,"NS(=O)(=O)c1ccc(-c2ncc(Br)c(Nc3cc(C4CC4)[nH]n3)n2)s1 [Compound 186, 5-[5-bromo-4-[(5-cyclopropyl-1H-pyrazol-3-yl)amino]-pyrimidin-2-yl]thiophene-2-sulfonamide]",8.00 to 9.00
3,"C#Cc1cnc(N2CC[C@H](N)C2)nc1Nc1cc(C2CC2)n[nH]1 [Compound 187, 2-(3-aminopyrrolidin-1-yl)-N-(5-cyclopropyl-2H-pyrazol-3-yl)-5-ethynyl-pyrimidin-4-amine]",< 5.40
4,"CCOC(=O)C(=O)c1ccc(-c2ncc(Cl)c(Nc3cc(C4CC4)[nH]n3)n2)s1 [Compound 189, ethyl 2-(5-(5-chloro-4-(5-cyclopropyl-1H-pyrazol-3-ylamino)pyrimidin-2-yl)thiophen-2-yl)-2-oxoacetate]",7.00 to 7.30
5,"O=C(O)C(=O)c1ccc(-c2ncc(Cl)c(Nc3cc(C4CC4)[nH]n3)n2)s1 [Compound 190, 2-(5-(5-chloro-4-(5-cyclopropyl-1H-pyrazol-3-ylamino)pyrimidin-2-yl)thiophen-2-yl)-2-oxoacetic acid]",7.30 to 8.00
6,"C#Cc1cnc(-c2ccc(CO)s2)nc1Nc1cc(C2CC2)[nH]n1 [Compound 196, (5-(4-(5-cyclopropyl-1H-pyrazol-3-ylamino)-5-ethynylpyrimidin-2-yl)thiophen-2-yl)methanol]",7.30 to 8.00
7,"C#Cc1cnc(-c2ccc(C(=O)C(=O)OCC)s2)nc1Nc1cc(C2CC2)[nH]n1 [Compound 202, ethyl 2-[5-[4-[(5-cyclopropyl-1H-pyrazol-3-yl)amino]-5-ethynyl-pyrimidin-2-yl]-2-thienyl]-2-oxo-acetate]",7.30 to 8.00
8,"C/C=C\c1cnc(-c2ccc(S(N)(=O)=O)s2)nc1Nc1cc(C2CC2)[nH]n1 [Compound 207, (Z)-5-(4-(5-cyclopropyl-1H-pyrazol-3-ylamino)-5-(prop-1-enyl)pyrimidin-2-yl)thiophene-2-sulfonamide]",8.00 to 9.00
9,"C=Cc1cnc(-c2ccc(S(N)(=O)=O)s2)nc1Nc1cc(C2CC2)[nH]n1 [Compound 209, 5-(4-(5-Cyclopropyl-1H-pyrazol-3-ylamino)-5-vinylpyrimidin-2-yl)thiophene-2-sulfonamide]",8.00 to 9.00
10,"C#Cc1cnc(-c2ccc([C@H](O)CC)s2)nc1Nc1cc(C2CC2)[nH]n1 [Compound 213, 1-[5-[4-[(5-cyclopropyl-1H-pyrazol-3-yl)amino]-5-ethynyl-pyrimidin-2-yl]-2-thienyl]propan-1-ol]",8.00 to 9.00
11,"CC(C)(C)NS(=O)(=O)c1ccc(-c2ncc(/C=C/CO)c(Nc3cc(C4CC4)[nH]n3)n2)s1 [Compound 218, (E)-N-tert-butyl-5-(4-(5-cyclopropyl-1H-pyrazol-3-ylamino)-5-(3-hydroxyprop-1-enyl)pyrimidin-2-yl)thiophene-2-sulfonamide]",7.00 to 7.30
12,"O=C(O)C(O)c1ccc(-c2ncc(Cl)c(Nc3cc(C4CC4)[nH]n3)n2)s1 (stereo not drawn) [Compound 219, 2-(5-(5-chloro-4-(5-cyclopropyl-1H-pyrazol-3-ylamino)pyrimidin-2-yl)thiophen-2-yl)-2-hydroxyacetic acid]",6.30 to 7.00
13,"NS(=O)(=O)c1ccc(-c2ncc(Cl)c(Nc3cc(-c4cccs4)[nH]n3)n2)s1 [Compound 220, 5-[5-chloro-4-[[5-(2-thienyl)-1H-pyrazol-3-yl]amino]-pyrimidin-2-yl]thiophene-2-sulfonamide]",< 5.40
14,"NS(=O)(=O)c1ccc(-c2ncc(Cl)c(Nc3cc[nH]n3)n2)s1 [Compound 221, 5-[5-chloro-4-(1H-pyrazol-3-ylamino)-pyrimidin-2-yl]thiophene-2-sulfonamide]",8.00 to 9.00
15,"C#Cc1cnc(-c2ccc(S(=O)(=O)CCCNC(C)=O)s2)nc1Nc1cc(C2CC2)[nH]n1 [Compound 229, N-(3-(5-(4-(5-cyclopropyl-1H-pyrazol-3-ylamino)-5-ethynylpyrimidin-2-yl)thiophen-2-ylsulfonyl)propyl)acetamide]",7.30 to 8.00
16,"C#Cc1cnc(-c2ccc(C(O)CCOC)s2)nc1Nc1cc(C2CC2)n[nH]1 (stereo not drawn) [Compound 230, 1-[5-[4-[(5-cyclopropyl-2H-pyrazol-3-yl)amino]-5-ethynyl-pyrimidin-2-yl]-2-thienyl]-3-methoxy-propan-1-ol]",7.00 to 7.30
17,"C#Cc1cnc(-c2ccc(C(O)C(=O)O)s2)nc1Nc1cc(C2CC2)[nH]n1 (stereo not drawn) [Compound 231, 2-[5-[4-[(5-cyclopropyl-1H-pyrazol-3-yl)amino]-5-ethynyl-pyrimidin-2-yl]-2-thienyl]-2-hydroxy-acetic acid]",7.00 to 7.30
18,"C#Cc1cnc(-c2ccc(C(O)C(=O)OCC)s2)nc1Nc1cc(C2CC2)[nH]n1 (stereo not drawn) [Compound 233, ethyl 2-[5-[4-[(5-cyclopropyl-1H-pyrazol-3-yl)amino]-5-ethynyl-pyrimidin-2-yl]-2-thienyl]-2-hydroxy-acetate]",7.30 to 8.00
19,"NS(=O)(=O)c1ccc(-c2ncc(Cl)c(Nc3cc(-c4ccccc4)[nH]n3)n2)s1 [Compound 234, 5-[5-chloro-4-[(5-phenyl-1H-pyrazol-3-yl)amino]-pyrimidin-2-yl]thiophene-2-sulfonamide]",< 5.40
20,"NS(=O)(=O)c1ccc(-c2ncc(Cl)c(Nc3cc(C4CCCC4)[nH]n3)n2)s1 [Compound 235, 5-[5-chloro-4-[(5-cyclopentyl-1H-pyrazol-3-yl)amino]-pyrimidin-2-yl]thiophene-2-sulfonamide]",7.30 to 8.00
21,"CC(=O)Nc1cnc(-c2ccc(S(N)(=O)=O)s2)nc1Nc1cc(C2CC2)[nH]n1 [Compound 241, N-[4-[(5-cyclopropyl-1H-pyrazol-3-yl)amino]-2-(5-sulfamoyl-2-thienyl)-pyrimidin-5-yl]acetamide]",7.00 to 7.30
22,"C#Cc1cnc(-c2ccc(C(O)CCO)s2)nc1Nc1cc(C2CC2)[nH]n1 (stereo not drawn) [Compound 242, 1-(5-(4-(5-cyclopropyl-1H-pyrazol-3-ylamino)-5-ethynylpyrimidin-2-yl)thiophen-2-yl)propane-1,3-diol]",7.30 to 8.00
23,"C#Cc1cnc(-c2ccc(C(O)CCOC(C)=O)s2)nc1Nc1cc(C2CC2)[nH]n1 (stereo not drawn) [Compound 243, 3-(5-(4-(5-cyclopropyl-1H-pyrazol-3-ylamino)-5-ethynylpyrimidin-2-yl)thiophen-2-yl)-3-hydroxypropyl acetate]",7.30 to 8.00
24,"C#Cc1cnc(N2CCCCC2C(=O)OC)nc1Nc1cc(C2CC2)[nH]n1 (stereo not drawn) [Compound 244, methyl 1-[4-[(5-cyclopropyl-1H-pyrazol-3-yl)amino]-5-ethynyl-pyrimidin-2-yl]piperidine-2-carboxylate]",< 5.40
25,"C#Cc1cnc(N2CCCCC2C(=O)O)nc1Nc1cc(C2CC2)n[nH]1 (stereo not drawn) [Compound 245, 1-[4-[(5-cyclopropyl-2H-pyrazol-3-yl)amino]-5-ethynyl-pyrimidin-2-yl]piperidine-2-carboxylic acid]",< 5.40
26,"C#Cc1cnc(-c2ccc(C(=O)C(=O)O)s2)nc1Nc1cc(C2CC2)[nH]n1 [Compound 246, 2-[5-[4-[(5-cyclopropyl-1H-pyrazol-3-yl)amino]-5-ethynyl-pyrimidin-2-yl]-2-thienyl]-2-oxo-acetic acid]",7.30 to 8.00
27,"NS(=O)(=O)c1ccc(-c2ncc(Cl)c(Nc3cc(-c4ccco4)[nH]n3)n2)s1 [Compound 247, 5-[5-chloro-4-[[5-(2-furyl)-1H-pyrazol-3-yl]amino]-pyrimidin-2-yl]thiophene-2-sulfonamide]",6.30 to 7.00
28,"C#Cc1cnc(N2CCCN(C)CC2)nc1Nc1cc(C2CC2)[nH]n1 [Compound 248, N-(5-cyclopropyl-1H-pyrazol-3-yl)-5-ethynyl-2-(4-methyl-1,4-diazepan-1-yl)-pyrimidin-4-amine]",< 5.40
29,"C#Cc1cnc(C2=CCNCC2)nc1Nc1cc(C2CC2)[nH]n1 [Compound 249, N-(5-cyclopropyl-1H-pyrazol-3-yl)-5-ethynyl-2-(1,2,3,6-tetrahydropyridin-4-yl)pyrimidin-4-amine]",< 5.40
